Source: ChEMBL document CHEMBL1152549, “Synthesis and molecular modeling of some novel hexahydroindazole derivatives as potent monoamine oxidase inhibitors” (Bioorg Med Chem, 2009)

Key:
[1] = target: T1, Amine oxidase [flavin-containing] A (Rattus norvegicus, UniProt P21396); assay: Competitive inhibition of MAOA in rat liver homogenate by spectrophotometrically; assay type: tissue-based
T1 sequence (P21396 whole entry): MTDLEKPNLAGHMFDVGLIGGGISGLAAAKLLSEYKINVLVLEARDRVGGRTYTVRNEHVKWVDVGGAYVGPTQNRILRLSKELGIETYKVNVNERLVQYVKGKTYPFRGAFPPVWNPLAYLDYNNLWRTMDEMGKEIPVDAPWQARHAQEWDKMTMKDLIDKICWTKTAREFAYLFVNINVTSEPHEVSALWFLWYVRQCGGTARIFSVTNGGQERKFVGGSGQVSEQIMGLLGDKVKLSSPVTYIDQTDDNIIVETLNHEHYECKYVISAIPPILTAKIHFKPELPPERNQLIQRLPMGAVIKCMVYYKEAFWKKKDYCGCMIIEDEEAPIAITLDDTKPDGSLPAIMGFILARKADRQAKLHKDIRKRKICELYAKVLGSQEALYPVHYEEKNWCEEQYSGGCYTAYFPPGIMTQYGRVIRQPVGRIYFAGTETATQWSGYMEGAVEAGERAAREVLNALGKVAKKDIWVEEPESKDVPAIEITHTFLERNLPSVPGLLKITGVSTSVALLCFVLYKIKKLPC

Rattus norvegicus = species: Rattus norvegicus; assay: Selectivity index, ratio of Ki for rat MAOA to Ki for rat MAOB
[2] = target: T2, Amine oxidase [flavin-containing] B (Rattus norvegicus, UniProt P19643); assay: Competitive inhibition of MAOB in rat liver homogenate by spectrophotometrically; assay type: tissue-based
T2 sequence (P19643 whole entry): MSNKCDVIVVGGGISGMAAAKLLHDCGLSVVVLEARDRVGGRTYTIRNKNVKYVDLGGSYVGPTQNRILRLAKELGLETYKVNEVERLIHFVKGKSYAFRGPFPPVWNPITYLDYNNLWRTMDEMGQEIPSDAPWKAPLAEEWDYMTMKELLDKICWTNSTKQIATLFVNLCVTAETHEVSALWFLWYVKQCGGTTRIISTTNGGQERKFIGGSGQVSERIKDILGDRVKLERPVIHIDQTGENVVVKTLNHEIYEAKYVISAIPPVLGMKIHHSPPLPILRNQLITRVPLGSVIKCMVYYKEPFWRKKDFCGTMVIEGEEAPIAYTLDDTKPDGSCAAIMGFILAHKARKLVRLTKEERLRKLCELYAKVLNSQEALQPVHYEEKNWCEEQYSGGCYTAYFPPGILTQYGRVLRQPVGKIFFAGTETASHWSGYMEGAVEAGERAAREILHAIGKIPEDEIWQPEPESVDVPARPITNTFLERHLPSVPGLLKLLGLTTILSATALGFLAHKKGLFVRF

| IC50 [1] | Ki [1] | Ratio Ki (Rattus norvegicus) | IC50 [2] | Ki [2] | Structure (SMILES) |
| --- | --- | --- | --- | --- | --- |
| 0.7 µM | 0.0391 µM | 0.004 | 75.1 µM | 92.3 µM | S=C(Nc1ccccc1)N1NC2=C(CCCC2)C1c1cccs1 (configuration not stated) |
| 110 µM | 4.26 µM | 2.19 | 2.77 µM | 1.95 µM | CCNC(=S)N1NC2=C(CCCC2)C1c1ccco1 (configuration not stated) |
| 3.01 µM | 1.72 µM | 0.57 | 90.1 µM | 3.01 µM | CCNC(=S)N1NC2=C(CCCC2)C1c1cccs1 (configuration not stated) |
|  |  |  | 89.5 µM | 1.08 µM | O=C(NCCN1CCOCC1)c1ccc(Cl)cc1 [MOCLOBEMIDE] |

Continued, compound first:

| Structure (SMILES) | IC50 [1] | Ki [1] | Ratio Ki (Rattus norvegicus) | IC50 [2] | Ki [2] |
| --- | --- | --- | --- | --- | --- |
| S=C(Nc1ccccc1)N1NC2=C(CCCC2)C1c1ccco1 (configuration not stated) | 0.78 µM | 0.00422 µM | 0.0034 | 80.4 µM | 1.23 µM |
| CNC(=S)N1NC2=C(CCCC2)C1c1ccco1 (configuration not stated) | 108 µM | 8.82 µM | 4.2 | 2.99 µM | 2.1 µM |
| NC(=S)N1NC2=C(CCCC2)C1c1cccs1 (configuration not stated) | 95.2 µM | 2.99 µM | 3320 | 1.26 µM | 0.0009 µM |
| NC(=S)N1NC2=C(CCCC2)C1c1ccco1 (configuration not stated) | 80.2 µM | 3.9 µM | 4060 | 1.37 µM | 0.00096 µM |
| CNC(=S)N1NC2=C(CCCC2)C1c1cccs1 (configuration not stated) | 62.3 µM | 5.01 µM | 2.96 | 2.61 µM | 1.69 µM |
